A word on the AC50: it is the concentration giving half of the maximal activity seen. By Ki is commonly meant a measure of affinity in units of concentration, obtained from inhibition or displacement.

Assay [1] concerns MOLP-8 human multiple myeloma cell line. Put plainly: Caspase-Glo 3/7 apoptosis induction assay in MOLP-8 cells. The class given is cell-based. The conditions noted are these: Homo sapiens, MOLP-8; caspase-3/7 activation, 2 hours incubation at 37° C.; averaged over all runs on all batches; read-out: MOLP8 AC50. The text has this:
MCL-1 is a regulator of apoptosis and is highly over-expressed in tumor cells that escape cell death. The assay evaluates the cellular potency of small-molecule compounds targeting regulators of the apoptosis pathway, primarily MCL-1, Bfl-1, Bcl-2, and other proteins of the Bcl-2 family. Protein-protein inhibitors disrupting the interaction of anti-apoptotic regulators with BH3-domain proteins initiate apoptosis.
The Caspase-Glo® 3/7 Assay is a luminescent assay that measures caspase-3 and -7 activities in purified enzyme preparations or cultures of adherent or suspension cells. The assay provides a proluminescent caspase-3/7 substrate, which contains the tetrapeptide sequence DEVD. This substrate is cleaved to release aminoluciferin, a substrate of luciferase used in the production of light. Addition of the single Caspase-Glo® 3/7 Reagent in an “add-mix-measure” format results in cell lysis, followed by caspase cleavage of the substrate and generation of a “glow-type” luminescent signal.
This assay uses the MOLP-8 human multiple myeloma cell line, which is sensitive to MCL-1 inhibition.
Cell cultures were maintained between 0.2 and 2.0×10^6 cells/mL. The cells were harvested by collection in 50 mL conical tubes. The cells were then pelleted at 500 g for 5 mins before removing supernatant and resuspension in fresh pre-warmed culture medium. The cells were counted and diluted as needed.
The assay reagent was prepared by transferring the buffer solution to the substrate vial and mixing. The solution may be stored for up to 1 week at 4° C. with negligible loss of signal.
Compounds were delivered in assay-ready plates (Proxiplate) and stored at −20° C.
Assays always include 1 reference compound plate containing reference compounds. The plates were spotted with 40 nL of compounds (0.5% DMSO final in cells; serial dilution; 30 μM highest conc. 1/3 dilution, 10 doses, duplicates). The compounds were used at room temperature and 4 μL of pre-warmed media was added to all wells except column 2 and 23. The negative control was prepared by adding 1% DMSO in media. The positive control was prepared by adding the appropriate positive control compound in final concentration of 60 μM in media. The plate was prepared by adding 4 μL negative control to column 23, 4 μL positive control to column 2, and 4 μL cell suspension to all wells in the plate. The plate with cells was then incubated at 37° C. for 2 hours. The assay signal reagent is the Caspase-Glo solution described above, and 8 μL was added to all wells. The plates were then sealed and measured after 30 minutes.
The activity of a test compound was calculated as percent change in apoptosis induction as follows: • LC=median of the Low Control values • =Central Reference in Screener • =DMSO • =0% • HC=Median of the High Control values • =Scale Reference in Screener • =30 μM of positive control • =100% apoptosis induction
% Effect (AC50)=100−((sample-LC)/(HC-LC))*100
% Control=(sample/HC)*100
% Control min=((sample-LC)/(HC-LC))*100
Table: Measured AC50 for Representative Compounds of Formula (I). Averaged values are reported over all runs on all batches of a particular compound.

The next assay concerns the target Mcl-1 (Homo sapiens (Human), UniProt Q07820). Put plainly: Terbium labeled Mcl-1 HTRF binding assay, displacement of Cy5-labeled BIM BH3 peptide. To be noted: Ki=IC50/(1+[L]/Kd), [L]=8 nM, Kd=10 nM; 25 pM Tb-Mcl-1, 8 nM Cy5 Bim peptide, 60 min; read-out: Tb-MCL1 Ki. The method, then: Terbium labeled Myeloid Cell Leukemia 1(Mcl-1) homogeneous time-resolved fluorescence (HTRF) binding assay utilizing the BIM BH3 peptide (H2N—(C/Cy5Mal) WIAQELRRIGDEFN-OH) as the binding partner for Mcl-1.
This assay evaluated inhibition of the BH3 domain: Mcl-1 interaction by measuring the displacement of Cy5-labeled BIM BH3 peptide (H2N—(C/Cy5Mal) WIAQELRRIGDEFN-OH) in the HTRF assay format.
The following assay and stock buffers were prepared for use in the assay: (a) Stock buffer: 10 mM Tris-HCl, pH=7.5+150 mM NaCl, filtered, sterilized, and stored at 4° C.; and (b) 1× assay buffer, where the following ingredients were added fresh to stock buffer: 2 mM dithiothreitol (DTT), 0.0025% Tween-20, 0.1 mg/mL bovine serum albumin (BSA). The 1× Tb-Mcl-1+Cy5 Bim peptide solution was prepared by diluting the protein stock solution using the 1× assay buffer (b) to 25 pM Tb-Mcl-1 and 8 nM Cy5 Bim peptide.
Using the Acoustic ECHO, 100 nL of 100× test compound(s) were dispensed into individual wells of a white 384-well Perkin Elmer Proxiplate, for a final compound concentration of 1× and final DMSO concentration of 1%. Inhibitor control and neutral control (NC, 100 nL of 100% DMSO) were stamped into columns 23 and 24 of assay plate. Into each well of the plate was then dispensed 10 μL of the 1× Tb-Mcl-1+Cy5 Bim peptide solution. The plate was centrifuged with a cover plate at 1000 rpm for 1 minute, then incubated for 60 minutes at room temperature with plates covered.
The TR-FRET signal was read on an BMG PHERAStar FSX MicroPlate Reader at room temperature using the HTRF optic module (HTRF: excitation: 337 nm, light source: laser, emission A: 665 nm, emission B: 620 nm, integration start: 60 μs, integration time: […]).
The BMG PHERAStar FSX MicroPlate Reader was used to measure fluorescence intensity at two emission wavelengths—665 nm and 620 nm—and report relative fluorescence units (RFU) for both emissions, as well as a ratio of the emissions (665 nm/620 nm)*10,000. The RFU values were normalized to percent inhibition as follows:
% inhibition (((NC−IC)−(compound-IC))/(NC−IC))*100
where IC (inhibitor control, low signal)=mean signal of 1× Tb-MCl-1+Cy5 Bim peptide+inhibitor control or 100% inhibition of Mel-1; NC (neutral control, high signal)=mean signal 1× Tb-MCI-1+Cy5 Bim peptide with DMSO only or 0% inhibition
An 11-point dose response curve was generated to determine IC50 values (using GenData) based on the following equation:
Y=Bottom+(Top-Bottom)/(1+10^((log IC50−X)*HillSlope))
where Y=% inhibition in the presence of X inhibitor concentration; Top=100% inhibition derived from the IC (mean signal of Mcl-1+inhibitor control); Bottom=0% inhibition derived from the NC (mean signal of Mcl-1+DMSO); Hillslope=Hill coefficient; and IC50=concentration of compound with 50% inhibition in relation to top/neutral control (NC).
In this assay [L]=8 nM and Kd=10 nM
Representative compounds of the present invention were tested according to the procedure as described above, with results as listed in the Table below (n.d. means not determined).

Mcl-1, sequence (Q07820 whole entry, the tested form may be a part): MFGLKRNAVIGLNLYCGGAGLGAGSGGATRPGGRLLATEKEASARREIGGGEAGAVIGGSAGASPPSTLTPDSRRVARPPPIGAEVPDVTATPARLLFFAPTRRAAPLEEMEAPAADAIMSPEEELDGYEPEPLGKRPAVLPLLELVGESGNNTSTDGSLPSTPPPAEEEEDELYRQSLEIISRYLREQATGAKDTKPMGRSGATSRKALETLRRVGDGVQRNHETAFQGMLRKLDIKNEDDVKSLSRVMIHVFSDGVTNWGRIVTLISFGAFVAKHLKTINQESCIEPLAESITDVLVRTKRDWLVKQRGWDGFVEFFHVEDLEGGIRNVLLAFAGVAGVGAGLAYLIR

On to `C[C@@H]1[C@@H](C)C/C=C(\F)[C@H]([C@@H](O)CN2CCOCC2)N2CCC[C@H]2CN2C[C@@]3(CCCc4cc(Cl)ccc43)COc3ccc(cc32)C(=O)NS1(=O)=O` [Compound 22], for which the AC50 in assay [1] amounted to 239 nM. The inhibitory constant (Ki) at Mcl-1 came out at 0.08 nM.

Take `COCCN(CCOC)C[C@H](O)[C@H]1/C(F)=C/C[C@H](C)[C@@H](C)S(=O)(=O)NC(=O)c2ccc3c(c2)N(C[C@@H]2CCN21)C[C@@]1(CCCc2cc(Cl)ccc21)CO3` [Compound 23]: the AC50 in assay [1] was 69.6 nM. Moreover, at Mcl-1, the inhibition constant (Ki) came out at 0.023 nM.

In the case of `COCC(COC)OC[C@H](O)[C@H]1/C(F)=C/C[C@H](C)[C@@H](C)S(=O)(=O)NC(=O)c2ccc3c(c2)N(C[C@@H]2CCN21)C[C@@]1(CCCc2cc(Cl)ccc21)CO3` [Compound 24], the AC50 in assay [1] was 46.3 nM. In addition, the Ki at Mcl-1 came to 0.036 nM.

For `COCCN(CC1CCOCC1)C[C@H](O)[C@H]1/C(F)=C/C[C@H](C)[C@@H](C)S(=O)(=O)NC(=O)c2ccc3c(c2)N(C[C@@H]2CCN21)C[C@@]1(CCCc2cc(Cl)ccc21)CO3` [Compound 25], the AC50 in assay [1] came to 36.6 nM. Also, the Ki at Mcl-1 worked out at 0.025 nM.

As to `COCCCN(CCOC)C[C@H](O)[C@H]1/C(F)=C/C[C@H](C)[C@@H](C)S(=O)(=O)NC(=O)c2ccc3c(c2)N(C[C@@H]2CCN21)C[C@@]1(CCCc2cc(Cl)ccc21)CO3` [Compound 26], in assay [1], the AC50 was 123 nM. Besides, the Ki at Mcl-1 is 0.044 nM.

As for `C[C@@H]1[C@@H](C)C/C=C(\F)[C@H]([C@@H](O)CN(C)CCC2CCOCC2)N2CC[C@H]2CN2C[C@@]3(CCCc4cc(Cl)ccc43)COc3ccc(cc32)C(=O)NS1(=O)=O` [Compound 27], the AC50 in assay [1] amounted to 746 nM. For the same compound, the Ki at Mcl-1 is 0.053 nM.

Take `C[C@@H]1[C@@H](C)C/C=C(\F)[C@H]([C@@H](O)CN(C)CC2CCOCC2)N2CC[C@H]2CN2C[C@@]3(CCCc4cc(Cl)ccc43)COc3ccc(cc32)C(=O)NS1(=O)=O` [Compound 28]: the AC50 in assay [1] was determined as 211 nM. Besides, at Mcl-1, the Ki stood at 0.037 nM.

As for `COCCN(C)C[C@H](O)[C@H]1/C(F)=C/C[C@H](C)[C@@H](C)S(=O)(=O)NC(=O)c2ccc3c(c2)N(C[C@@H]2CCN21)C[C@@]1(CCCc2cc(Cl)ccc21)CO3` [Compound 29], the AC50 in assay [1] stood at 385 nM. Besides, the Ki on Mcl-1 turned out to be 0.044 nM.

As for `COCCOCCN(C)C[C@H](O)[C@H]1/C(F)=C/C[C@H](C)[C@@H](C)S(=O)(=O)NC(=O)c2ccc3c(c2)N(C[C@@H]2CCN21)C[C@@]1(CCCc2cc(Cl)ccc21)CO3` [Compound 30], the AC50 in assay [1] amounted to 944 nM. Further, on Mcl-1, the Ki was found to be 0.036 nM.

With `C[C@@H]1[C@@H](C)C/C=C(\F)[C@H]([C@@H](O)CN(C)C)N2CC[C@H]2CN2C[C@@]3(CCCc4cc(Cl)ccc43)COc3ccc(cc32)C(=O)NS1(=O)=O` [Compound 31], the half-maximal activity concentration (AC50) in assay [1] stood at 1020 nM. In addition, the inhibitory constant (Ki) on Mcl-1 is 0.041 nM.

In the case of `CO[C@H](C)[C@H]1/C(F)=C/C[C@H](C)[C@@H](C)S(=O)(=O)NC(=O)c2ccc3c(c2)N(C[C@@H]2CCCN21)C[C@@]1(CCOc2cc(Cl)ccc21)CO3` [Compound 32], in assay [1], the AC50 amounted to 3710 nM. For the same compound, on Mcl-1, the Ki is 1.93 nM.
